This note sets out measurements from PubChem BioAssay (NCI).

What all share (experiment): NCI-60 cell line screen, 48 h
For assay [1], the system named is HS 578T breast.
For assay [2], the system named is UACC-257 melanoma.
Assay [3] has as its system NCI-H226 lung.
The test system of assay [4] is SW-620 colon.
Assay [5] deals with MDA-MB-231 breast.
For assay [6], the system named is SF-268 CNS.
In assay [7] the test system is U251 CNS.
For assay [8], the system named is DU-145 prostate.
In assay [9] the test system is SNB-19 CNS.
In assay [10] the test system is TK-10 renal.

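Interpolation was linear, between the two tested concentrations surrounding the appropriate level; five concentrations were tested over 48 hours in 96-well plates. At the TGI there is no net growth.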

As to `O=C1NC(N/N=C/C(O)C(O)C(O)CO)=N/C1=C\c1ccco1` (stereo not given), the TGI in [1], in assay [2], in assay [3], in assay [4], in [5] and in [6] was > 100 µM each time. Further, the TGI in assay [7], in assay [8], in assay [9] and in assay [10] was > 100 µM in each case.

As to `Cc1ccc([C@H]2CC(=O)C[C@H](c3ccc(C)cc3)C23C(=O)c2ccccc2C3=O)cc1`, the TGI was 58.7 µM in assay [1]; 49.7 µM in [2]; > 100 µM in assay [3]; > 100 µM in [4]; > 100 µM in assay [5]; > 100 µM in assay [6]. For the same compound, the TGI in assay [7] is 35.6 µM; in [8], > 100 µM; in [9], 79.7 µM; in [10], > 100 µM.

Take `O=c1nc2c(c(-c3ccccc3Cl)[nH]1)COC/C2=C\c1ccccc1Cl`: the TGI in [1], in assay [2], in assay [3], in assay [4], in assay [5] and in [6] was > 100 µM in each case. Moreover, the TGI in assay [7], in [8], in assay [9] and in [10] was > 100 µM throughout.

For the compound `CN(C)Cc1cc(C(=O)/C=C/c2ccccc2Cl)cc(CN(C)C)c1O`, the TGI in [1] stood at 46.3 µM; in [2] it was 30.1 µM; in assay [3], 48.2 µM; in [4], 17 µM; in [5] it was 24.6 µM; in [6], 61.3 µM. Besides, the TGI in assay [7] was 27 µM; in assay [8] it was 24.8 µM; in assay [9], 27.2 µM; in assay [10], 34.9 µM.

Regarding `O=C1c2ccccc2-c2nc(-c3cccc([N+](=O)[O-])c3)nnc21`, the TGI was > 100 µM in assay [1]; 13.3 µM in assay [2]; 35.9 µM in assay [3]; 62.8 µM in assay [4]; > 100 µM in assay [5]; > 100 µM in assay [6]. In addition, the TGI is > 100 µM in assay [7], 17 µM in assay [8], > 100 µM in [9] and 39.5 µM in assay [10].

As for `CCC1(C)N=C(c2cnccn2)NN1c1ccc(Cl)cc1` (stereo not given), the TGI in [1] is > 100 µM; in assay [2] it was 99.3 µM; in [3], > 100 µM; in [4], > 100 µM; in assay [5], > 100 µM; in assay [6] it was > 100 µM. Also, the TGI in assay [7], in [8], in [9] and in assay [10] was > 100 µM each time.

Regarding `CC(=O)c1ccc2c3c1[C@@H]1O[C@@H]1c1cccc(c1-3)[C@@H]1O[C@H]21`, the TGI in assay [1] is 70.7 µM; in [2], > 60.2 µM; in assay [3], > 95.1 µM; in assay [4], 7.99 µM; in assay [5], 42.9 µM; in assay [6] it was 27.4 µM. Moreover, the TGI in [7] was 19.3 µM; in [8] it was 23.2 µM; in assay [9], > 60.9 µM; in [10] it was > 77.1 µM.

On to `C1CNCCNCCN1`, for which the TGI in assay [1], in assay [2], in [3], in [4], in [5] and in assay [6] was > 100 µM throughout. Besides, the TGI in assay [7], in assay [8], in assay [9] and in [10] was > 100 µM each time.

In the case of `O=c1[nH]nc(Cc2ccc([N+](=O)[O-])cc2)n1CCO`, the TGI in assay [1], in assay [2], in assay [3], in [4], in [5] and in assay [6] was > 100 µM throughout. Besides, the TGI in assay [7], in assay [8], in assay [9] and in assay [10] was > 100 µM each time.

On to `CCN1C(=O)C(=C/C=C/c2ccc([N+](=O)[O-])cc2)C(=O)N(CC)C1=S`, for which the TGI was 55.1 µM in assay [1]; 32.2 µM in assay [2]; > 100 µM in assay [3]; 36.8 µM in assay [4]; 47 µM in assay [5]; 53 µM in [6]. Further, the TGI is 32.4 µM in [7], 33.3 µM in assay [8], > 100 µM in assay [9] and 37.8 µM in assay [10].

As for `CCOC(=O)/C=C(\C(=O)OCC)n1cc(C)c(=O)n(Cc2cnnn2CCCCOC(C)=O)c1=O`, the TGI is > 66.4 µM in assay [1]; 31.7 µM in [2]; 30.4 µM in [3]; > 38.4 µM in assay [4]; 50.2 µM in assay [5]; 54.1 µM in assay [6]. For the same compound, the TGI was 49.2 µM in assay [7], > 55.8 µM in assay [8], > 66.5 µM in assay [9] and 13.7 µM in assay [10].

Consider `CCC(C#N)NC(=O)NC(C#N)CC` (stereo not given), for which the TGI in [1], in assay [2], in [3], in assay [4], in [5] and in [6] was > 100 µM each time. Further, the TGI in [7], in assay [8], in [9] and in [10] was > 100 µM in each case.
